Active and inactive are the calls of the source. The rule behind the calls is not given here.
Target: Mu-type opioid receptor (Homo sapiens) (UniProt P35372)
Assay: mu opioid receptor activators – cell-based, luminescence, dose response, set 2, counter-screen for OPRM1-OPRD1 heterodimer activator project, late-stage follow-up (AID 651769)
Conditions: OPRM1 cell-based luminescence activation counterscreen

Chain of Mu-type opioid receptor (Homo sapiens) (P35372 whole entry, looked up): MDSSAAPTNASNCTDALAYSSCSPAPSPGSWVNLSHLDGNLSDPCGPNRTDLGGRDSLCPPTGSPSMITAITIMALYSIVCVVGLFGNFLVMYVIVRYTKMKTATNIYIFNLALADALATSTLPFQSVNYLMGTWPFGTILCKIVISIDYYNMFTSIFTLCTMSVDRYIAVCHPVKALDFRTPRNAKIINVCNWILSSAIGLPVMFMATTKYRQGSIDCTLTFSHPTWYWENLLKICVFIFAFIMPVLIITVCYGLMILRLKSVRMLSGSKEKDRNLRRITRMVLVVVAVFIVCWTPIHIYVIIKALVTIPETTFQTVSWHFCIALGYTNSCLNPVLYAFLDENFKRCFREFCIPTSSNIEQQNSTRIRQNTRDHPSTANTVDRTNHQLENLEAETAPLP

Question: Which EC50 does the source give for `CCOC(=O)C1(CCc2ccccc2)CCN(Cc2ccc(O)cc2)CC1` here?
Answer: > 50 µM (inactive)

Question: With `CCOC(=O)C1(Cc2ccccc2C)CCCN(Cc2ccc(NC(C)=O)cc2)C1` (stereo not drawn) as the molecule, how does the EC50 read?
Answer: > 50 µM (inactive)

Question: Which EC50 does the source give for `CCOC(=O)C1(CCc2ccccc2)CCN(Cc2ccc(C(=O)OC)cc2)CC1` here?
Answer: > 50 µM (inactive)

Question: Which EC50 does the source give for `CCOC(=O)C1CCN(Cc2ccc(N(C)C)cc2)CC1` here?
Answer: > 50 µM (inactive)

Question: `O=C(O)C1CCCCC1C(=O)Nc1ccc(CN2CCCCC2)cc1` (stereo not drawn) was tested. Which EC50 did it give?
Answer: > 50 µM (inactive)

Question: `CCOC(=O)C1CCN(CCC(=O)Nc2ccc(C)cc2)CC1` was tested. Which EC50 did it give?
Answer: > 50 µM (inactive)

Question: `CCOC(=O)C1(CCOC)CCCN(Cc2ccc(NC(C)=O)cc2)C1` (stereo not drawn) was tested. Which EC50 did it give?
Answer: > 50 µM (inactive)

Question: Which EC50 does the source give for `CCOC(=O)C1CCCCN1Cc1ccc(NC(C)=O)cc1` (stereo not drawn) here?
Answer: > 50 µM (inactive)

Question: How did the EC50 turn out when `CCOC(=O)C1(CCc2ccccc2)CCN(Cc2ccc(OC)cc2)CC1` was run?
Answer: 1.92 µM

Question: With `CCOC(=O)C1(CCc2ccccc2)CCN(Cc2ccncc2)CC1` as the molecule, how does the EC50 read?
Answer: > 50 µM (inactive)

Question: For `CCOC(=O)C1(CCOc2ccccc2)CCCN(Cc2ccc(NC(C)=O)cc2)C1` (stereo not drawn), which EC50 is on record?
Answer: > 50 µM (inactive)

Question: `CCOC(=O)C1(Cc2ccccc2)CCCN(Cc2ccc(NC(C)=O)cc2)C1` (stereo not drawn) was tested. Which EC50 did it give?
Answer: > 50 µM (inactive)

Question: Which EC50 does the source give for `CCOC(=O)C1(Cc2ccc(OC)cc2)CCN(C(=O)c2ccc(N(C)C)cc2)CC1` here?
Answer: > 50 µM (inactive)

Question: How did the EC50 turn out when `CCOC(=O)C1(CCc2ccccc2)CCN(Cc2c(O)cccc2OC)CC1` was run?
Answer: 3.44 µM

Question: How did the EC50 turn out when `CCOC(=O)C1(Cc2cccc(OC)c2)CCCN(Cc2ccc(NC(C)=O)cc2)C1` (stereo not drawn) was run?
Answer: > 50 µM (inactive)

Question: Which EC50 does the source give for `CCOC(=O)C1(CCc2ccccc2)CCCN(Cc2ccc(N3CCNC3=O)cc2)C1` (stereo not drawn) here?
Answer: > 50 µM (inactive)

Question: `CCOC(=O)C1(CCOC)CCN(Cc2ccc(NC(C)=O)cc2)CC1` was tested. Which EC50 did it give?
Answer: > 50 µM (inactive)

Question: For `CCOC(=O)C1(CCOC)CCN(Cc2ccc(N(C)c3ccccc3)cc2)CC1`, which EC50 is on record?
Answer: > 50 µM (inactive)

Question: `CCOC(=O)C1(Cc2ccccc2Cl)CCN(Cc2ccc(NC(C)=O)cc2)CC1` was tested. Which EC50 did it give?
Answer: > 50 µM (inactive)

Question: With `CC(=O)Nc1ccc(CN2CCCC(CO)(CCc3ccccc3)C2)cc1` (stereo not drawn) as the molecule, how does the EC50 read?
Answer: > 50 µM (inactive)

Question: With `C=Cc1ccc(C(=O)N2CCC(CCc3ccccc3)(C(=O)OCC)CC2)cc1` as the molecule, how does the EC50 read?
Answer: > 50 µM (inactive)

Question: How did the EC50 turn out when `CCOC(=O)C1CCN(Cc2ccc(NC(C)=O)cc2)CC1` was run?
Answer: > 50 µM (inactive)

Question: Which EC50 does the source give for `C=Cc1ccc(C(=O)N2CCC(CCCc3ccccc3)(C(=O)OCC)CC2)cc1` here?
Answer: > 50 µM (inactive)

Question: `CCOC(=O)C1(CCc2ccccc2)CCN(Cc2ccc(C#CC(C)(C)O)cc2)CC1` was tested. Which EC50 did it give?
Answer: > 50 µM (inactive)

Question: Which EC50 does the source give for `CCOC(=O)C1(CC2CC2)CCN(C(=O)c2ccc(N3CCCCC3)cc2)CC1` here?
Answer: > 50 µM (inactive)

Question: How did the EC50 turn out when `CCOC(=O)C1(CC2CC2)CCN(Cc2ccc(NC(C)=O)cc2)CC1` was run?
Answer: > 50 µM (inactive)

Question: Which EC50 does the source give for `CCOC(=O)C1CCN(C(=O)c2ccc(N(C)C)cc2)CC1` here?
Answer: > 50 µM (inactive)

Question: Which EC50 does the source give for `CCOC(=O)C1(CCc2ccccc2)CCN(C(=O)Nc2ccc(C)cc2C)CC1` here?
Answer: > 50 µM (inactive)
